Measurements from paper PMC9313426, “CDI Exerts Anti-Tumor Effects by Blocking the FoxM1-DNA Interaction” (Biomedicines, 2022).

Target: T1, FoxM1 (Homo sapiens, UniProt Q08050)
T1 sequence (Q08050 222-360 limits assumed): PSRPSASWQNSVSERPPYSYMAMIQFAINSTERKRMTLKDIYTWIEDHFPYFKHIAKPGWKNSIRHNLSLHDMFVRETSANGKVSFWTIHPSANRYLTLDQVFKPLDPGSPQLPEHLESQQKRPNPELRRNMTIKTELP
Test: TR-FRET FoxM1-DBD/biotinylated dsDNA binding inhibition assay

IC50 | SMILES
4.9 ± 1.5 µM | CC(C)C1=C[C@@]23CC[C@@H]4[C@](C)(CCC[C@@]4(C)C(=O)O)[C@H]2C[C@@H]1[C@H]1C(=O)C=C(Cl)C(=O)[C@H]13 [CDI, (4aR,4bS,6aR,7R,10aR,10bR,12R,12aR)-3-Chloro-4,4a,5,6,6a,7,8,9,10,10a,10b,11,12,12a-tetradecahydro-7,10a-dimethyl-13-(1-methylethyl)-1,4-dioxo-1H-4b,12-ethenochrysene-7-carboxylic acid]
3.7 ± 0.9 µM | Nc1c(C(=O)Nc2ccc(F)cc2)sc2nc(-c3cccs3)cc(C(F)(F)F)c12 [FDI-6]
